Read-outs that look alike come from different tables or passages of the source.
Columns and labels:
IL-2 = test: Cytokine release assay in hPBMCs: IL-2; assay type: cell-based; settings: Homo sapiens
Experimental: hPBMCs were obtained from healthy donors by centrifugation of heparinized venous blood over Ficoll/Hypaque solution (Histopaque-1077, Sigma, USA). Isolated hPBMCs were suspended in RPMI 1640 culture medium supplemented with 10% FBS and seeded at a density of 50,000 cells/well in a 96-well plate (Nunc, USA). The cells were incubated at 37° C., 5% CO2 for a period of 24 h. These cells were used for the lymphocyte proliferation as well as cytokine release assay.
The plated cells were treated with different concentrations of the test compound (prepared as mM stock in DMSO and diluted with DMSO to achieve the following final concentrations in the assay: 100, 10, 1, 0.1, 0.01, 0.001, 0.0001, 0.00001 and 0.000001 μM) and incubated for 30 min. The cells were then stimulated with PHA (prepared as 1 mg/mL stock in RPMI 1640 culture medium and used at a final concentration of 5 μg/mL). FK506 was used as a standard. The plates were incubated at 37° C., 5% CO2 for 48 h. The cytokines in the supernatant collected were detected using ELISA kit (BD biosciences, USA). The cytokines evaluated in the assay were TNF-α, IL-2, IL-6, and IFN-γ.

TNF-α = test: Synovial tissue assay (spontaneous production): TNF-α; assay type: cell-based; settings: Homo sapiens, synovial tissue cells from rheumatoid arthritis patients, 16 h, read-out: IC50 of TNF-α inhibition
From the text: The ability of compounds of the present invention to inhibit spontaneous production of cytokines from freshly isolated human synovial tissue cells was designed as in reference, Lancet, 29, 244-247, (1989) the disclosure of which is incorporated by reference for the teaching of the assay.
Synovial tissue was obtained from rheumatoid arthritis patients undergoing knee replacement surgery. […] Subsequently, the cells were washed 3 times with RPMI 1640 culture medium and resuspended in complete medium (RPMI 1640 culture medium supplemented with 5% FBS and 5% human serum-AB+(Sigma, USA) at a concentration of 1×10^6 cells/mL. The viability of synovial cells was determined by trypan blue dye exclusion and was uniformly ≧98%. For the experiment, 100 μL of cell suspension was added to the wells of a 96-well culture plate (Nunc, USA). Following cell plating, 100 μL of the culture medium and 1 μL of various concentrations of the test compound (test compound was dissolved in DMSO to obtain a stock solution of 20 mM. […] The IC50 values were calculated by a nonlinear regression method using the GraphPad software (Prism 3.03).

IFN-γ = test: Concanavalin-A-induced IFN-γ production from hPBMC; assay type: cell-based; settings: Homo sapiens; Con-A-induced production from hPBMCs, 18 h
Experimental: Peripheral blood mononuclear cells (hPBMC) were harvested using Ficoll-Hypaque density gradient centrifugation (1.077 g/mL; Sigma Aldrich). hPBMCs were resuspended in RPMI 1640 culture medium (Gibco BRL, Pasley, UK) containing 10% FCS, 100 U/mL penicillin (Sigma Chemical Co. St Louis, Mo.) and […] streptomycin (Sigma Chemical Co. St Louis, Mo.) at 1×10^6 cells/mL. 1×10^5 hPBMCs/well were pre-treated with test compound or 0.5% DMSO (carrier control) for 30 min at 37° C. Subsequently, these cells were stimulated with 1 μg/mL concanavalin A (Sigma Chemical Co., St. Louis, Mo.). Following 18 h incubation at 37° C., supernatants were collected and stored at −70° C. until assayed for human IFN-γ by ELISA as described by the manufacturer (OptiEIA ELISA sets, BD BioSciences). In each experiment, cyclosporin (1 μM) was used as a positive control for inhibiting induced IFN-γ production.

IL-6 = test: Gene expression profile using RTQ-PCR: IL-6; assay type: cell-based, human; settings: 3 μM
Experimental: The effect of the compound of example 7 was measured in stimulated untreated cells from the monocytic cell line (THP-1), human monocytes and synovial cells from rheumatoid arthritis patient. The effect of the compound in the THP-1 cell line was measured in terms of gene expression and was expressed as fold changes as compared to the cell stimulated control with no drug treatment.
THP-1 cells, human monocytes and synovial cells were treated with compound of example 7 or vehicle (0.5% DMSO). Total RNA isolation using a commercial RNA extraction kit (Qiagen Corporation, Germany) The first-strand cDNA was synthesized from total RNA using first strand cDNA synthesis kit from Invitrogen Corporation (California, USA). This was followed by real time quantitative polymerase chain reaction (RTQ PCR) using gene specific primers and standard thermal program of initial denaturation at 95° C. for 5 min and cycles of 95° C. for 10 seconds, followed by 60° C. for 30 seconds (Realplex PCR machine from Eppendorf, Germany). Quantitative measurement of products made during PCR cycles was normalized against a housekeeping gene (Actin) and was used to measure the gene expression as fold changes as compared to respective control.

C/C=C/C(O)C(C)/C=C/C(=N\O)C(C)C(O)C(C)C1OC(=O)/C(OC)=C/C(C)=C/C(C)C(O)C(CC)C(O)C(C)C/C(C)=C/C=C/C1OC (stereo not shown) [Compound of example 7, (3Z,5E,13E,15E)-18-((5Z,6E,10E)-3,9-Dihydroxy-5-(hydroxymino)-4,8-dimethyldodeca-6,10-dien-2-yl)-9-ethyl-8,10-dihydroxy-3,17-dimethoxy-5,7,11,13-tetramethyl oxacyclooctadeca-3,5,13,15-tetraen-2-one]
IC50 (IL-2; Table 3: PHA-PMA induced hPBMC's, 48 h, read-out: IL-2 IC50): 0.005 µM
IC50 (IL-2; Table 4: mitogen stimulated production from hPBMC's, read-out: IL-2 (IC50 μM)): 0.007 µM
IC50 (TNF-α): 19000 nM
IC50 (IFN-γ): 0.2 µM
IL-6 gene expression (IL-6; Human monocytes, 3 h, ± SE, N = 3): −1.1 + 1.0 log fold change
IL-6 gene expression (IL-6; Synovial cells, 12 h, N = 1): −4.0 log fold change
IL-6 gene expression (IL-6; THP-1 cells, 12 h, ± SE, N = 3): −1.5 + 1.0 log fold change
